{"source": "patent US20240374552A1", "about": "“Compositions and Methods for Preventing or Reducing the Risk of Metabolic Syndrome” (priority 2021, published 2024)", "key": {"[1]": {"details": "in vivo, 10 mg"}, "mice": {"test_system": "mice", "test": "Evaluation toxicity, 90-day daily intragastric administration in mice", "format": "in vivo", "details": "for Percentage of dead mice (%): purity min 95%"}, "in vivo": {"test": "in vivo", "details": "10 mg, t1/2 (h)"}, "[2]": {"details": "pH 7.2; cited from earlier work"}, "rat": {"test_system": "rat", "details": "cited from earlier work"}}, "data": [{"compound": "CC(C)(C)c1cc(C=C(C#N)C#N)cc(C(C)(C)C)c1O", "note": "[tyrphostin AG17, Tyrphostin AG17]", "values": [{"measurement": "Vdapa (L), Geometric Mean", "setting": "[1]", "value": 22.038, "unit": "L"}, {"measurement": "Vdapa (L), Mean", "setting": "[1]", "value": 22.537, "unit": "L"}, {"measurement": "Vdapa (L), Median", "setting": "[1]", "value": 22.494, "unit": "L"}, {"measurement": "Percentage of dead mice, second evaluation", "setting": "mice; 5.50 mg/kg to 55.50 mg/kg, lot with minimum purity of 98%", "value": 0, "unit": "%"}, {"measurement": "Percentage of dead mice (deaths), second evaluation", "setting": "mice; 100.00 mg/kg, lot with minimum purity of 98%", "value": 10, "unit": "%"}, {"measurement": "Percentage of dead mice (%)", "setting": "mice; T2: 0.000175 mg/Kg daily 90 days", "value": 0, "unit": "%"}, {"measurement": "Percentage of dead mice (%)", "setting": "mice; T4: 0.0175 mg/Kg daily 90 days", "value": 0, "unit": "%"}, {"measurement": "Percentage of dead mice (%)", "setting": "mice; T6: 0.18 mg/Kg daily 90 days", "value": 0, "unit": "%"}, {"measurement": "Percentage of dead mice (%)", "setting": "mice; T10: 5.50 mg/Kg daily 90 days", "value": 10, "unit": "%"}, {"measurement": "Percentage of dead mice (%)", "setting": "mice; T11: 17.50 mg/Kg daily 90 days", "value": 10, "unit": "%"}, {"measurement": "Percentage of dead mice (%)", "setting": "mice; T12: 25.00 mg/Kg daily 90 days", "value": 0, "unit": "%"}, {"measurement": "Percentage of dead mice (%)", "setting": "mice; T12: 25.00 mg/Kg daily 90 days, listed as tyrphostin", "value": "did not show any dead mice"}, {"measurement": "Percentage of dead mice (%)", "setting": "mice; T13: 28.00 mg/Kg daily 90 days", "value": 10, "unit": "%"}, {"measurement": "Percentage of dead mice (%)", "setting": "mice; T14: 40.00 mg/Kg daily 90 days", "value": 10, "unit": "%"}, {"measurement": "Percentage of dead mice (%)", "setting": "mice; T15: 50.00 mg/Kg daily 90 days", "value": 20, "unit": "%"}, {"measurement": "Percentage of dead mice (%)", "setting": "mice; T16: 55.50 mg/Kg daily 90 days", "value": 20, "unit": "%"}, {"measurement": "Percentage of dead mice (%)", "setting": "mice; T17: 100.00 mg/Kg daily 90 days", "value": 40, "unit": "%"}, {"measurement": "half-life", "setting": "in vivo; Geometric Mean", "value": 80.6, "unit": "h"}, {"measurement": "half-life", "setting": "in vivo; Mean", "value": 82.2, "unit": "h"}, {"measurement": "half-life", "setting": "in vivo; Median", "value": 75.2, "unit": "h"}, {"measurement": "Solubility", "setting": "[2]", "value": "~150", "unit": "µg/mL"}, {"measurement": "oral LD50", "setting": "rat", "value": 87, "unit": "mg/kg"}]}]}
